# Source: ChEMBL document CHEMBL1155271, “Synthesis, crystal structures and antibacterial activity studies of aza-derivatives of phytoalexin from cotton plant--gossypol” (2009)
# Activity calls are given as the source filed them. The calls are words filed in the database; no cut-off is given here.
# How the values were obtained:
# Assay type in all cases: functional
# Staphylococcus aureus [1] = test: Antimicrobial activity against Methicillin susceptible Staphylococcus aureus 206/7 by twofold dilution technique
# Staphylococcus aureus [2] = test: Antimicrobial activity against methicillin-resistant Staphylococcus aureus 136/6 by twofold dilution technique
# Micrococcus luteus [3] = test: Antimicrobial activity against Micrococcus luteus ATCC 9341 at 400 ug after 18 hrs by disk diffusion method
# [4] = system: Staphylococcus epidermidis; test: Antimicrobial activity against Staphylococcus epidermidis ATCC 12228 by twofold dilution technique
# Enterococcus hirae [5] = test: Antimicrobial activity against Enterococcus hirae ATCC 10541 after 18 hrs by twofold dilution technique; settings: ATCC 10541, 18 h
# Staphylococcus aureus [6] = test: Antimicrobial activity against Methicillin susceptible Staphylococcus aureus 238/7 by twofold dilution technique
# Staphylococcus aureus [7] = test: Antimicrobial activity against Staphylococcus aureus ATCC 25923 at 400 ug after 18 hrs by disk diffusion method; settings: ATCC 25923, 18 h, read-out: DIZ
# Staphylococcus aureus [8] = test: Antimicrobial activity against methicillin-resistant Staphylococcus aureus 143/6 by twofold dilution technique
# Staphylococcus aureus [9] = test: Antimicrobial activity against Methicillin susceptible Staphylococcus aureus 207/7 by twofold dilution technique
# Staphylococcus aureus [10] = test: Antimicrobial activity against Methicillin susceptible Staphylococcus aureus 212/7 by twofold dilution technique
# Staphylococcus aureus [11] = test: Antimicrobial activity against methicillin-resistant Staphylococcus aureus 140/6 by twofold dilution technique
# Staphylococcus aureus [12] = test: Antimicrobial activity against Methicillin susceptible Staphylococcus aureus 208/7 by twofold dilution technique
# Bacillus cereus [13] = test: Antimicrobial activity against Bacillus cereus ATCC 11778 after 18 hrs by twofold dilution technique; settings: ATCC 11778, 18 h
# Staphylococcus aureus [14] = test: Antimicrobial activity against methicillin-resistant Staphylococcus aureus 236/7 by twofold dilution technique
# Staphylococcus aureus [15] = test: Antimicrobial activity against methicillin-resistant Staphylococcus aureus 217/7 by twofold dilution technique
# Staphylococcus aureus [16] = test: Antimicrobial activity against Methicillin susceptible Staphylococcus aureus 213/7 by twofold dilution technique
# Bacillus cereus [17] = test: Antimicrobial activity against Bacillus cereus ATCC 11778 at 400 ug after 18 hrs by disk diffusion method; settings: ATCC 11778, 18 h, read-out: DIZ
# Enterococcus hirae [18] = test: Antimicrobial activity against Enterococcus hirae ATCC 10541 at 400 ug after 18 hrs by disk diffusion method
# Staphylococcus aureus [19] = test: Antimicrobial activity against Staphylococcus aureus ATCC 6538 after 18 hrs by twofold dilution technique; settings: ATCC 6538, 18 h
# Staphylococcus aureus [20] = test: Antimicrobial activity against Staphylococcus aureus NCTC 4163 at 400 ug after 18 hrs by disk diffusion method; settings: NCTC 4163, 18 h, read-out: DIZ
# Micrococcus luteus [21] = test: Antimicrobial activity against Micrococcus luteus ATCC 9341 after 18 hrs by twofold dilution technique; settings: ATCC 9341, 18 h
# Staphylococcus aureus [22] = test: Antimicrobial activity against Methicillin susceptible Staphylococcus aureus 243/7 by twofold dilution technique
# Staphylococcus aureus [23] = test: Antimicrobial activity against methicillin-resistant Staphylococcus aureus 218/7 by twofold dilution technique
# Staphylococcus aureus [24] = test: Antimicrobial activity against Methicillin susceptible Staphylococcus aureus 237/7 by twofold dilution technique
# Staphylococcus aureus [25] = test: Antimicrobial activity against methicillin-resistant Staphylococcus aureus 200/7 by twofold dilution technique
# Micrococcus luteus [26] = test: Antimicrobial activity against Micrococcus luteus ATCC 10240 by twofold dilution technique
# Staphylococcus aureus [27] = test: Antimicrobial activity against Staphylococcus aureus ATCC 25923 after 18 hrs by twofold dilution technique; settings: ATCC 25923, 18 h
# Staphylococcus aureus [28] = test: Antimicrobial activity against Methicillin susceptible Staphylococcus aureus 239/7 by twofold dilution technique
# Staphylococcus aureus [29] = test: Antimicrobial activity against Staphylococcus aureus ATCC 6538 at 400 ug after 18 hrs by disk diffusion method; settings: ATCC 6538, 18 h, read-out: DIZ
# Staphylococcus aureus [30] = test: Antimicrobial activity against Staphylococcus aureus ATCC 29213 at 400 ug after 18 hrs by disk diffusion method; settings: ATCC 29213, 18 h, read-out: DIZ
# [31] = system: Staphylococcus epidermidis; test: Antimicrobial activity against Staphylococcus epidermidis ATCC 12228 at 400 ug after 18 hrs by disk diffusion method; settings: ATCC 12228, 18 h, read-out: DIZ
# Bacillus subtilis [32] = test: Antimicrobial activity against Bacillus subtilis ATCC 6633 at 400 ug after 18 hrs by disk diffusion method; settings: ATCC 6633, 18 h, read-out: DIZ
# Staphylococcus aureus [33] = test: Antimicrobial activity against methicillin-resistant Staphylococcus aureus 144/6 by twofold dilution technique
# Staphylococcus aureus [34] = test: Antimicrobial activity against methicillin-resistant Staphylococcus aureus 146/6 by twofold dilution technique
# Staphylococcus aureus [35] = test: Antimicrobial activity against Staphylococcus aureus ATCC 29213 after 18 hrs by twofold dilution technique; settings: ATCC 29213, 18 h
# Bacillus subtilis [36] = test: Antimicrobial activity against Bacillus subtilis ATCC 6633 after 18 hrs by twofold dilution technique; settings: ATCC 6633, 18 h
# Micrococcus luteus [37] = test: Antimicrobial activity against Micrococcus luteus ATCC 10240 at 400 ug after 18 hrs by disk diffusion method; settings: ATCC 10240, 18 h, read-out: DIZ
# Staphylococcus aureus [38] = test: Antimicrobial activity against methicillin-resistant Staphylococcus aureus 141/6 by twofold dilution technique
# Staphylococcus aureus [39] = test: Antimicrobial activity against Methicillin susceptible Staphylococcus aureus 242/7 by twofold dilution technique
# Staphylococcus aureus [40] = test: Antimicrobial activity against Staphylococcus aureus NCTC 4163 after 18 hrs by twofold dilution technique; settings: NCTC 4163, 18 h
SMILES,MIC (Staphylococcus aureus [1]),MIC (Staphylococcus aureus [2]),MIC [4],MIC (Enterococcus hirae [5]),MIC (Staphylococcus aureus [6]),zone of inhibition at 400 µg/disc (Staphylococcus aureus [7]),MIC (Staphylococcus aureus [8]),MIC (Staphylococcus aureus [9]),MIC (Staphylococcus aureus [10]),MIC (Staphylococcus aureus [11]),MIC (Staphylococcus aureus [12]),MIC (Bacillus cereus [13]),MIC (Staphylococcus aureus [14]),MIC (Staphylococcus aureus [15]),MIC (Staphylococcus aureus [16]),zone of inhibition at 400 µg/disc (Bacillus cereus [17]),diameter of the inhibition zone (DIZ) (Enterococcus hirae [18]),MIC (Staphylococcus aureus [19]),zone of inhibition at 400 µg/disc (Staphylococcus aureus [20]),MIC (Micrococcus luteus [21]),also measured
COCCOC(CN/N=C/c1c(O)c(O)c(C(C)C)c2cc(C)c(-c3c(C)cc4c(C(C)C)c(O)c(O)c(/C=N/NCC(OCCOC)OCCOC)c4c3O)c(O)c12)OCCOC,400 µg/mL,400 µg/mL,> 400 µg/mL,400 µg/mL,400 µg/mL,12 mm,> 400 µg/mL,> 400 µg/mL,> 400 µg/mL,400 µg/mL,> 400 µg/mL,400 µg/mL,400 µg/mL,> 400 µg/mL,400 µg/mL,12 mm,inactive,400 µg/mL,11 mm,400 µg/mL,diameter of the inhibition zone (DIZ) (Micrococcus luteus [3]): inactive; MIC (Staphylococcus aureus [22]): > 400 µg/mL; MIC (Staphylococcus aureus [23]): > 400 µg/mL; MIC (Staphylococcus aureus [24]): 400 µg/mL; MIC (Staphylococcus aureus [25]): > 400 µg/mL; MIC (Micrococcus luteus [26]): 400 µg/mL; MIC (Staphylococcus aureus [27]): 400 µg/mL; MIC (Staphylococcus aureus [28]): 400 µg/mL; zone of inhibition at 400 µg/disc (Staphylococcus aureus [29]): 11 mm; zone of inhibition at 400 µg/disc (Staphylococcus aureus [30]): 11 mm; zone of inhibition at 400 µg/disc [31]: 13 mm; zone of inhibition at 400 µg/disc (Bacillus subtilis [32]): 12 mm; MIC (Staphylococcus aureus [33]): 400 µg/mL; MIC (Staphylococcus aureus [34]): 400 µg/mL; MIC (Staphylococcus aureus [35]): 400 µg/mL; MIC (Bacillus subtilis [36]): > 400 µg/mL; zone of inhibition at 400 µg/disc (Micrococcus luteus [37]): 14 mm; MIC (Staphylococcus aureus [38]): 400 µg/mL; MIC (Staphylococcus aureus [39]): 200 µg/mL; MIC (Staphylococcus aureus [40]): 400 µg/mL
COCCOCCN/N=C/c1c(O)c(O)c(C(C)C)c2cc(C)c(-c3c(C)cc4c(C(C)C)c(O)c(O)c(/C=N/NCCOCCOC)c4c3O)c(O)c12,100 µg/mL,100 µg/mL,> 400 µg/mL,200 µg/mL,100 µg/mL,12 mm,400 µg/mL,400 µg/mL,400 µg/mL,200 µg/mL,400 µg/mL,100 µg/mL,100 µg/mL,400 µg/mL,200 µg/mL,11 mm,inactive,100 µg/mL,12 mm,200 µg/mL,diameter of the inhibition zone (DIZ) (Micrococcus luteus [3]): inactive; MIC (Staphylococcus aureus [22]): 400 µg/mL; MIC (Staphylococcus aureus [23]): 200 µg/mL; MIC (Staphylococcus aureus [24]): 200 µg/mL; MIC (Staphylococcus aureus [25]): 200 µg/mL; MIC (Micrococcus luteus [26]): 200 µg/mL; MIC (Staphylococcus aureus [27]): 200 µg/mL; MIC (Staphylococcus aureus [28]): 400 µg/mL; zone of inhibition at 400 µg/disc (Staphylococcus aureus [29]): 12 mm; zone of inhibition at 400 µg/disc (Staphylococcus aureus [30]): 13 mm; zone of inhibition at 400 µg/disc [31]: 12 mm; zone of inhibition at 400 µg/disc (Bacillus subtilis [32]): 11 mm; MIC (Staphylococcus aureus [33]): 200 µg/mL; MIC (Staphylococcus aureus [34]): 200 µg/mL; MIC (Staphylococcus aureus [35]): 100 µg/mL; MIC (Bacillus subtilis [36]): 400 µg/mL; zone of inhibition at 400 µg/disc (Micrococcus luteus [37]): 11 mm; MIC (Staphylococcus aureus [38]): 200 µg/mL; MIC (Staphylococcus aureus [39]): 50 µg/mL; MIC (Staphylococcus aureus [40]): 200 µg/mL
COCCOCCOCCN/N=C/c1c(O)c(O)c(C(C)C)c2cc(C)c(-c3c(C)cc4c(C(C)C)c(O)c(O)c(/C=N/NCCOCCOCCOC)c4c3O)c(O)c12,200 µg/mL,200 µg/mL,> 400 µg/mL,200 µg/mL,400 µg/mL,12 mm,400 µg/mL,400 µg/mL,400 µg/mL,200 µg/mL,400 µg/mL,100 µg/mL,100 µg/mL,200 µg/mL,400 µg/mL,12 mm,inactive,200 µg/mL,11 mm,400 µg/mL,diameter of the inhibition zone (DIZ) (Micrococcus luteus [3]): inactive; MIC (Staphylococcus aureus [22]): 400 µg/mL; MIC (Staphylococcus aureus [23]): 400 µg/mL; MIC (Staphylococcus aureus [24]): 400 µg/mL; MIC (Staphylococcus aureus [25]): 400 µg/mL; MIC (Micrococcus luteus [26]): 400 µg/mL; MIC (Staphylococcus aureus [27]): 200 µg/mL; MIC (Staphylococcus aureus [28]): 400 µg/mL; zone of inhibition at 400 µg/disc (Staphylococcus aureus [29]): 11 mm; zone of inhibition at 400 µg/disc (Staphylococcus aureus [30]): 12 mm; zone of inhibition at 400 µg/disc [31]: 14 mm; zone of inhibition at 400 µg/disc (Bacillus subtilis [32]): 11 mm; MIC (Staphylococcus aureus [33]): 400 µg/mL; MIC (Staphylococcus aureus [34]): 200 µg/mL; MIC (Staphylococcus aureus [35]): 200 µg/mL; MIC (Bacillus subtilis [36]): > 400 µg/mL; zone of inhibition at 400 µg/disc (Micrococcus luteus [37]): 13 mm; MIC (Staphylococcus aureus [38]): 400 µg/mL; MIC (Staphylococcus aureus [39]): 100 µg/mL; MIC (Staphylococcus aureus [40]): 200 µg/mL
Cc1cc2c(c(O)c1-c1c(C)cc3c(c1O)/C(=C/N)C(=O)C(O)=C3C(C)C)/C(=C/N)C(=O)C(O)=C2C(C)C,100 µg/mL,100 µg/mL,> 400 µg/mL,100 µg/mL,100 µg/mL,13 mm,100 µg/mL,200 µg/mL,200 µg/mL,100 µg/mL,100 µg/mL,50 µg/mL,100 µg/mL,200 µg/mL,100 µg/mL,11 mm,inactive,50 µg/mL,15 mm,100 µg/mL,"zone of inhibition at 400 µg/disc (Micrococcus luteus [3]; ATCC 9341, 18 h, read-out: DIZ): 11 mm; MIC (Staphylococcus aureus [22]): 100 µg/mL; MIC (Staphylococcus aureus [23]): 100 µg/mL; MIC (Staphylococcus aureus [24]): 100 µg/mL; MIC (Staphylococcus aureus [25]): 100 µg/mL; MIC (Micrococcus luteus [26]): 100 µg/mL; MIC (Staphylococcus aureus [27]): 100 µg/mL; MIC (Staphylococcus aureus [28]): 100 µg/mL; zone of inhibition at 400 µg/disc (Staphylococcus aureus [29]): 14 mm; zone of inhibition at 400 µg/disc (Staphylococcus aureus [30]): 13 mm; zone of inhibition at 400 µg/disc [31]: 12 mm; zone of inhibition at 400 µg/disc (Bacillus subtilis [32]): 11 mm; MIC (Staphylococcus aureus [33]): 100 µg/mL; MIC (Staphylococcus aureus [34]): 100 µg/mL; MIC (Staphylococcus aureus [35]): 50 µg/mL; MIC (Bacillus subtilis [36]): 100 µg/mL; zone of inhibition at 400 µg/disc (Micrococcus luteus [37]): 14 mm; MIC (Staphylococcus aureus [38]): 100 µg/mL; MIC (Staphylococcus aureus [39]): 50 µg/mL; MIC (Staphylococcus aureus [40]): 100 µg/mL"
